For 20 compounds, Ki and Activity results are on record in ChEMBL document CHEMBL1145068 (J Med Chem, 2003).

One assay deals with D(3) dopamine receptor (Rattus norvegicus, UniProt P19020). In words: biochemical.
The target of assay [1] is T1, Alpha-1A adrenergic receptor (Rattus norvegicus, UniProt P43140).
T1 sequence (P43140 whole entry): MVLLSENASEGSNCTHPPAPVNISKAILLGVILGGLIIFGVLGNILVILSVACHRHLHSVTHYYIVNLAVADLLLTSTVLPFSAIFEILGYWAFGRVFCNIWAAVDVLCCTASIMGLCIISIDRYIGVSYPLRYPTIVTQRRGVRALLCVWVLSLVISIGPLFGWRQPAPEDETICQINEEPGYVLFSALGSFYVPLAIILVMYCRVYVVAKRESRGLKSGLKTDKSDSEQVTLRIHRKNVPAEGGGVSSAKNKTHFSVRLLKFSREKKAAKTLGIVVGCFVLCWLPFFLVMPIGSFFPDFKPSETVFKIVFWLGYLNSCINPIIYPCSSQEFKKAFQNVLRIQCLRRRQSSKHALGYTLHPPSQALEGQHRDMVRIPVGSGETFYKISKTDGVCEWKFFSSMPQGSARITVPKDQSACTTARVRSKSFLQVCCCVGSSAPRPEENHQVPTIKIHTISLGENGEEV
Kind of assay: Binding affinity for rat cortex alpha-1 adrenergic receptor by inhibition of [3H]prazosin binding.

Assay [2] has as its target T2, Alpha-2A adrenergic receptor (Rattus norvegicus, UniProt P22909).
T2 sequence (P22909 whole entry): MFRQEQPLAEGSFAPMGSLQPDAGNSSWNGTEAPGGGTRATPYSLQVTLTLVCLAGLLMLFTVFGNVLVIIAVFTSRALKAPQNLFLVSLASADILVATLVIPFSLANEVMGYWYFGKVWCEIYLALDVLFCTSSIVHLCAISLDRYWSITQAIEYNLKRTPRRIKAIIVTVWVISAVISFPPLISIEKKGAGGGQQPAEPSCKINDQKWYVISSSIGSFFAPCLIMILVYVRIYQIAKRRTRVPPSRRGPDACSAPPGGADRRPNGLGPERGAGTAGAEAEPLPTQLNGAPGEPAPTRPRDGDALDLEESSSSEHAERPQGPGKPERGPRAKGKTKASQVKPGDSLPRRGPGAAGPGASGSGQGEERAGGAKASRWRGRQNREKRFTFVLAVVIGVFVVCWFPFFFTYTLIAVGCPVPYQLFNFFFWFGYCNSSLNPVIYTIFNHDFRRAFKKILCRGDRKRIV
In words: Binding affinity for rat cortex Alpha-2 adrenergic receptor was determined using [3H]-RX 81002 binding.

The target in another assay is D(1A) dopamine receptor (Rattus norvegicus, UniProt P18901). In words: Binding affinity for rat striatum Dopamine receptor D1 by […] displacement. The format is tissue-based.
Assay [3] deals with T3, 5-hydroxytryptamine receptor 1A (Rattus norvegicus, UniProt P19327).
T3 sequence (P19327 whole entry): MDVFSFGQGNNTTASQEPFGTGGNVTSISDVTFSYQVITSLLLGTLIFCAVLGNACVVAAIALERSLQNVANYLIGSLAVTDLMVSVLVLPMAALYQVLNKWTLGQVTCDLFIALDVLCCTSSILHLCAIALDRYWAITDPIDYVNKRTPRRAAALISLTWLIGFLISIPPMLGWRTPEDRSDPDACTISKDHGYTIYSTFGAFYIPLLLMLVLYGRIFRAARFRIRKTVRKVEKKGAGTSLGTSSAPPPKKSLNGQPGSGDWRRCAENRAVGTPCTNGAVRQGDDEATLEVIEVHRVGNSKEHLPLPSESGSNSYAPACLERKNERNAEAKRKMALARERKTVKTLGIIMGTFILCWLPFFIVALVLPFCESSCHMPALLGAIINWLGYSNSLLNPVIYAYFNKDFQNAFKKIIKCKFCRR
Kind of assay: Binding affinity for rat hippocampus 5-hydroxytryptamine 1A receptor by inhibition of [3H]8-OH-DPAT binding. Type of assay: tissue-based.

The target in a further assay is D(2) dopamine receptor (Rattus norvegicus, UniProt P61169). Kind of assay: Binding affinity for rat striatum Dopamine receptor D2 by [3H]spiperone displacement. The format is tissue-based.
Assay [4] concerns the target T2, Alpha-2A adrenergic receptor. In words: Binding affinity for rat cortex alpha-2 adrenergic receptor was determined using [3H]-RX 81002 binding.
Assay [5] deals with D(3) dopamine receptor (Homo sapiens) (UniProt P35462). Kind of assay: Maximal stimulation reached was evaluated by using [35S]- GTP-gamma S radioligand. Type of assay: functional. For orientation: Binding of GTPγS marks nucleotide exchange on a G protein.

A value given as a limit tells only on which side of the number the result lay.

Chain of D(1A) dopamine receptor (P18901 whole entry): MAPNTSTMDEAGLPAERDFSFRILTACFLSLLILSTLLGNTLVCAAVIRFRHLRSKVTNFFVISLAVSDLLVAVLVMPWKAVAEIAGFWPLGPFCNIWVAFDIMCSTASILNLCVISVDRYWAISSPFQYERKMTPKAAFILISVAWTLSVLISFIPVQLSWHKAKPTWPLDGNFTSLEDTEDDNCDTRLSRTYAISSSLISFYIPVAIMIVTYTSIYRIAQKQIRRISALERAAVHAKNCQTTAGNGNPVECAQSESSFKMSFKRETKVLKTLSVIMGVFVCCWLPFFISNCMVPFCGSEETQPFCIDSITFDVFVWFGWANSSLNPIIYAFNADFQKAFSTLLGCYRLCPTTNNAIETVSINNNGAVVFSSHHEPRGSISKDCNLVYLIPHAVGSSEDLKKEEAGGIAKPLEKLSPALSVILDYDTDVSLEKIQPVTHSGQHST
Chain of D(3) dopamine receptor (P19020 whole entry): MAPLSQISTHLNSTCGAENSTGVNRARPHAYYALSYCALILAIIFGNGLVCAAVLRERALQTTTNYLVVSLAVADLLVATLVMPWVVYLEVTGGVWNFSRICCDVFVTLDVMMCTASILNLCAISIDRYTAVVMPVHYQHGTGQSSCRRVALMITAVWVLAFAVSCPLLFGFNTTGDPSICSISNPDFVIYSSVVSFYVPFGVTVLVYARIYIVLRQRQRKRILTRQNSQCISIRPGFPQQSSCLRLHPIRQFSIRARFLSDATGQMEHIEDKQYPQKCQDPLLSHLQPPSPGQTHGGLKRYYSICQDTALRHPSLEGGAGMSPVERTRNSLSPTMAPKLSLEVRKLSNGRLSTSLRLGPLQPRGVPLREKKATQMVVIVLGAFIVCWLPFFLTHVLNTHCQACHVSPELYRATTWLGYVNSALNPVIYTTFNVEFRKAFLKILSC
Chain of D(2) dopamine receptor (P61169 whole entry): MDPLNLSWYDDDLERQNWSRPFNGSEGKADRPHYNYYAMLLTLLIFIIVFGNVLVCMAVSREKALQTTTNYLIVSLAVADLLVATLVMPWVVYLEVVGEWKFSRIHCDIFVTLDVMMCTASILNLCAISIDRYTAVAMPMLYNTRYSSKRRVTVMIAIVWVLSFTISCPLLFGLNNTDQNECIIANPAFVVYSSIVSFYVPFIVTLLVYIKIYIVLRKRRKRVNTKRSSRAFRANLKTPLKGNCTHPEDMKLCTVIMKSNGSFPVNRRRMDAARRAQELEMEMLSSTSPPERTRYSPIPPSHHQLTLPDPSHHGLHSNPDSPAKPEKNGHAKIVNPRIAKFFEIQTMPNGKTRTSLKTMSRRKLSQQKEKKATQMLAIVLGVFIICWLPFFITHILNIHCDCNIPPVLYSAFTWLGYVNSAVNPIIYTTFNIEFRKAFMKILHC
Chain of D(3) dopamine receptor (Homo sapiens) (P35462 whole entry): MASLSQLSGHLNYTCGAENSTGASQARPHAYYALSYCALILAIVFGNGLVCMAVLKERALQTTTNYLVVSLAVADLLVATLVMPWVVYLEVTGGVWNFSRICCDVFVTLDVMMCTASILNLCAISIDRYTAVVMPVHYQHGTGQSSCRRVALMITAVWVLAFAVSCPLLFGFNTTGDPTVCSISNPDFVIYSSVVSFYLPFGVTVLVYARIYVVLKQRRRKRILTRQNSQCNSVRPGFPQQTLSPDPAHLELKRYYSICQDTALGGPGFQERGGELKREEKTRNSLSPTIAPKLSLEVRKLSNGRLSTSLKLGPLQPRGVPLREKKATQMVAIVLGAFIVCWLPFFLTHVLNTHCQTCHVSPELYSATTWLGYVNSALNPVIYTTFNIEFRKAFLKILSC

Broadly, the Ki is a dissociation constant, usually derived from enzyme kinetics or from competition with a known ligand. Low readings indicate a stronger hold on the target, high ones a looser hold on the target. For the compound `COc1ccccc1N1CCN(CCCCNC(=O)c2cc3ccccc3[nH]2)CC1`, the Ki amounted to 2.9 nM at D(3) dopamine receptor; 666 nM in assay [1]; 76 nM in assay [2]; 970 nM at D(1A) dopamine receptor; 11.8 nM in assay [3]; 160 nM on D(2) dopamine receptor.

Take `COc1ccccc1N1CCN(CCCCNC(=O)c2cc3ccccc3o2)CC1`: the inhibitory constant (Ki) in assay [1] is 36 nM; in assay [2], 54 nM.

With `O=C(NCCCCN1CCN(c2ccc(Cl)c(Cl)c2)CC1)c1cc2ccccc2o1`, the results for the Ki at D(3) dopamine receptor, at D(1A) dopamine receptor and on D(2) dopamine receptor were 7.8 nM, 1660 nM and 333 nM, respectively.

With `N#Cc1ccc(N2CCN(CCCCNC(=O)c3cc4ccccc4o3)CC2)cc1`, at D(3) dopamine receptor, the affinity, expressed as Ki, was 41.3 nM.

As for `COc1ccccc1N1CCN(CCCCN2CCn3c(cc4ccccc43)C2=O)CC1`, the Ki at D(3) dopamine receptor amounted to 0.87 nM; in assay [1], 33 nM; in assay [2], 89 nM; at D(1A) dopamine receptor, 1570 nM; in assay [3], 4.9 nM; at D(2) dopamine receptor it was 45 nM.

As for `COc1ccccc1N1CCN(CCCCNC(=O)[C@H]2Cc3ccccc3CN2)CC1`, the Ki on D(3) dopamine receptor is 4.3 nM.

In the case of `COc1ccccc1N1CCN(CCCCNC(=O)c2cc3ccccc3cn2)CC1`, the Ki on D(3) dopamine receptor came to 0.49 nM; in assay [1], 5.8 nM; in assay [4], 76 nM; at D(1A) dopamine receptor, 1480 nM; in assay [3], 3.12 nM; on D(2) dopamine receptor it was 75 nM.

Regarding `COc1ccccc1N1CCN(CCNCc2coc(-c3cc4ccccc4o3)n2)CC1`, the Ki on D(3) dopamine receptor is 759 nM; on D(1A) dopamine receptor, above 10000 nM; at D(2) dopamine receptor, 518 nM.

With `COc1ccccc1N1CCN(CCCCNC(=O)c2nc3ccccc3n3cccc23)CC1`, the figures for the inhibitory constant (Ki) at D(3) dopamine receptor, at D(1A) dopamine receptor and on D(2) dopamine receptor were 28 nM, 778 nM and 59 nM, respectively.

For the compound `O=C(NCCCCN1CCN(c2ccc(Cl)cc2Cl)CC1)c1cc2ccccc2cn1`, the Ki stood at 0.66 nM on D(3) dopamine receptor; 629 nM in assay [1]; 1050 nM in assay [2]; 7750 nM on D(1A) dopamine receptor; 1050 nM in assay [3]; 342 nM on D(2) dopamine receptor.

For `O=C(NCCCCN1CCN(c2ccc(Cl)cc2Cl)CC1)c1cc2ccccc2o1`, the Ki on D(3) dopamine receptor is 0.41 nM; in assay [1], 779 nM; in assay [2], 1890 nM; at D(1A) dopamine receptor, 7660 nM; in assay [3] it was 908 nM; at D(2) dopamine receptor it was 409 nM.

Turning to `COc1ccccc1N1CCN(CCCCNC(=O)c2ccc3ccccc3n2)CC1`, the results for the Ki on D(3) dopamine receptor, at D(1A) dopamine receptor and on D(2) dopamine receptor were 4.8 nM, 1350 nM and 83 nM, respectively.

On to `COc1ccccc1N1CCN(CCCCNC(=O)c2cnc3ccccc3n2)CC1`, for which the results for the Ki at D(3) dopamine receptor, at D(1A) dopamine receptor and at D(2) dopamine receptor were 11 nM, 1440 nM and 84 nM, respectively.

`NCCc1c[nH]c2ccc(O)cc12` returned an Activity in assay [5] of 30 µM.

Consider `COc1ccccc1N1CCN(CC2CCN(C(=O)c3cc4ccccc4o3)CC2)CC1`, for which the inhibition constant (Ki) on D(3) dopamine receptor turned out to be 74 nM; on D(1A) dopamine receptor, 2680 nM; on D(2) dopamine receptor it was 244 nM.

At D(3) dopamine receptor, `COc1ccccc1N1CCN(CCCCNC(=O)[C@@H]2Cc3ccccc3CN2)CC1` registered a Ki of 9.2 nM.

With `O=C(NCCCCN1CCN(c2ccc(Cl)cc2Cl)CC1)c1cc2cc(Cl)ccc2[nH]1`, the Ki on D(3) dopamine receptor is 0.38 nM; in assay [1], 8100 nM; in assay [2], above 10000 nM; at D(1A) dopamine receptor, above 10000 nM.

On to `COc1ccccc1N1CCN(CCNCc2coc(-c3ccc4ccccc4c3)n2)CC1`, for which the inhibition constant Ki at D(3) dopamine receptor was 295 nM; at D(1A) dopamine receptor it was above 10000 nM; on D(2) dopamine receptor, 86 nM.

For `COc1ccccc1N1CCN(CCCCNC(=O)c2ccc3ccccc3c2)CC1` [BP-897], the Ki in assay [2] was found to be 83 nM.

`O=C(NCCCCN1CCN(c2ccc(Cl)cc2Cl)CC1)c1cc2ccccc2[nH]1`: the values for the Ki (in assay [1]; in assay [2]; on D(1A) dopamine receptor) were 547 nM, above 10000 nM and above 10000 nM, respectively.
